Test system: mouse liver microsomes, T1/2, LC-MS/MS
Assay: Allosteric/Competitive Inhibitors of Caspase 1: Metabolic Stability Profiling
Conditions: at 1 µM; active compounds read high
From the text: The caspases (Cysteine Aspartyl Protease) comprise a related family of 14 dimeric proteases that are critical mediators of apoptosis (programmed cell death) and inflammation. The caspases represent an important class of drug targets for stroke, ischemia, cancer and inflammatory diseases. The goal of this project was to identify compounds that act as selective inhibitors caspase 1. To identify both allosteric and competitive inhibitors of caspase 1, the enzyme was screened using a pro-fluorescent substrate in a qHTS format. […] Mouse liver microsomes are created through broken up endoplasmic reticulum from mouse liver. These liver microsomes contain many drug metabolizing enzymes, such as Cytochome P-450s and flavin-containing monooxygenases. Because metabolism is major way of drug clearance, this is an important result. H Chemical Genomics Center [NCGC] NIH Molecular Libraries Probe Production Centers Network [MLPCN] MLSCN Grant: 1 X01 MH078950-01 PI Name: Dr. James Wells
1uM of compound in incubated in mouse liver microsome; the reference compound is ketanserin. Compounds are incubated at 37 degrees C for different time periods: 0, 5, 15, 30, 45, and 60 minutes. Samples are analyzed with LC-MS/MS.

half-life: 3.43 h
SMILES: CC(C)(C)[C@H](NC(=O)c1ccc(N)c(Cl)c1)C(=O)N1CCC[C@H]1C(=O)N[C@H](C#N)CC(=O)O

From PubChem BioAssay AID504731 (National Center for Advancing Translational Sciences (NCATS), 2011)
